Experiments:
[1] = molecular target: wild-type EZH2 (PRC2 enzyme) (Homo sapiens (Human), UniProt Q15910); assay: PRC2 enzyme assay on peptide substrate (wild-type EZH2); type: biochemical; conditions: wild-type PRC2 4 nM, H3K27me0 peptide substrate, 3H-SAM; read-out: WT EZH2 IC50
Description: S-adenosylmethionine (SAM), S-adenosylhomocyteine (SAH), bicine, KCl, Tween20, dimethylsulfoxide (DMSO) and bovine skin gelatin (BSG) were purchased from Sigma-Aldrich at the highest level of purity possible. Dithiothreitol (DTT) was purchased from EMD. ^3H-SAM was purchased from American Radiolabeled Chemicals with a specific activity of 80 Ci/mmol. 384-well streptavidin Flashplates were purchased from PerkinElmer.
Peptides representative of human histone H3 residues 21-44 containing either an unmodified lysine 27 (H3K27me0) or dimethylated lysine 27 (H3K27me2) were synthesized with a C-terminal G(K-biotin) linker-affinity tag motif and a C-terminal amide cap by 21st Century Biochemicals. The peptides were high-performance liquid chromatography (HPLC) purified to greater than 95% purity and confirmed by liquid chromatography mass spectrometry (LC-MS). The sequences are listed below.
Human PRC2 enzymes were purified as 4-component enzyme complexes co-expressed in Spodoptera frugiperda (sf9) cells using a baculovirus expression system. The subunits expressed were wild-type EZH2 (NM_004456) or EZH2 Y641F, N, H, S or C mutants generated from the wild-type EZH2 construct, EED (NM_003797), Suz12 (NM_015355) and RbAp48 (NM_005610). The EED subunit contained an N-terminal FLAG tag that was used to purify the entire 4-component complex from sf9 cell lysates. The purity of the complexes met or exceeded 95% as determined by SDS-PAGE and Agilent Bioanalyzer analysis. Concentrations of enzyme stock concentrations (generally 0.3-1.0 mg/mL) was determined using a Bradford assay against a bovine serum albumin (BSA) standard.
The assays were all performed in a buffer consisting of 20 mM bicine (pH=7.6), 0.5 mM DTT, 0.005% BSG and 0.002% Tween20, prepared on the day of use. […] The plates were then read in a PerkinElmer TopCount platereader to measure the quantity of ^3H-labeled peptide bound to the Flashplate surface, measured as disintegrations per minute (dpm) or alternatively, referred to as counts per minute (cpm). […]

[2] = tested on: H3K27me3 in WSU-DLCL2 cells; assay: WSU-DLCL2 methylation assay (H3K27me3 ELISA); type: cell-based; conditions: Homo sapiens, WSUDLCL2, 96 hours incubation, H3K27me3 normalized to total H3
Description: WSU-DLCL2 suspension cells were purchased from DSMZ (German Collection of Microorganisms and Cell Cultures, Braunschweig, Germany). RPMI/Glutamax Medium, Penicillin-Streptomycin, Heat Inactivated Fetal Bovine Serum, and D-PBS were purchased from Life Technologies, Grand Island, N.Y., USA. Extraction Buffer and Neutralization Buffer (5×) were purchased from Active Motif, Carlsbad, Calif., USA. Rabbit anti-Histone H3 antibody was purchased from Abcam, Cambridge, Mass., USA. Rabbit anti-H3K27me3 and HRP-conjugated anti-rabbit-IgG were purchased from Cell Signaling Technology, Danvers, Mass., USA. TMB “Super Sensitive” substrate was sourced from BioFX Laboratories, Owings Mills, Md., USA. IgG-free Bovine Serum Albumin was purchased from Jackson ImmunoResearch, West Grove, Pa., USA. PBS with Tween (10×PBST) was purchased from KPL, Gaithersburg, Md., USA. Sulfuric Acid was purchased from Ricca Chemical, Arlington, Tex., USA. Immulon ELISA plates were purchased from Thermo, Rochester, N.Y., USA. V-bottom cell culture plates were purchased from Corning Inc., Corning, N.Y., USA. V-bottom polypropylene plates were purchased from Greiner Bio-One, Monroe, N.C., USA.
WSU-DLCL2 suspension cells were maintained in growth medium (RPMI 1640 supplemented with 10% v/v heat inactivated fetal bovine serum and 100 units/mL penicillin-streptomycin) and cultured at 37° C. under 5% CO2. […]

wild-type EZH2 (PRC2 enzyme), sequence (Q15910 other isoform, or with tags, fused parts or gaps): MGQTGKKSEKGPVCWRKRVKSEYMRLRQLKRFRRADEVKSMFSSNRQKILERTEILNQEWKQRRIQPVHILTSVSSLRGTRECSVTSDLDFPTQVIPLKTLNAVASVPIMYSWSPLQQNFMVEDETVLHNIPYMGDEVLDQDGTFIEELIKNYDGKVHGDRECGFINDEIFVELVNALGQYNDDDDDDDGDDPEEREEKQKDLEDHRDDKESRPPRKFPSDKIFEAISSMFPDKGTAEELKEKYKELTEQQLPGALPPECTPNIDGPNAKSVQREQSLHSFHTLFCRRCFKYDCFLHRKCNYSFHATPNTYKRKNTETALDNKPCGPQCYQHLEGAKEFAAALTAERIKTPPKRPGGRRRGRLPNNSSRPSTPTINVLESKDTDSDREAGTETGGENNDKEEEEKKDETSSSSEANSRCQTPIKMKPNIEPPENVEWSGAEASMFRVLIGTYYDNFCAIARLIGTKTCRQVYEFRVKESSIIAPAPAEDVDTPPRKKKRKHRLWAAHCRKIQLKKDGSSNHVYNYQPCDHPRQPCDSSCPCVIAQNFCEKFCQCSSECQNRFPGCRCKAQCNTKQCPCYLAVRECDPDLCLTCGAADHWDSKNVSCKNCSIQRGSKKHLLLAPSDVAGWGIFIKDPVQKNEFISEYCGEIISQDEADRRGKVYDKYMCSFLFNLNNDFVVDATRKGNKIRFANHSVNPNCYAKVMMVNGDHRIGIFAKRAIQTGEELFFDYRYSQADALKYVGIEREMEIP
wild-type EZH2 (PRC2 enzyme), sequence (O75530 whole entry partner): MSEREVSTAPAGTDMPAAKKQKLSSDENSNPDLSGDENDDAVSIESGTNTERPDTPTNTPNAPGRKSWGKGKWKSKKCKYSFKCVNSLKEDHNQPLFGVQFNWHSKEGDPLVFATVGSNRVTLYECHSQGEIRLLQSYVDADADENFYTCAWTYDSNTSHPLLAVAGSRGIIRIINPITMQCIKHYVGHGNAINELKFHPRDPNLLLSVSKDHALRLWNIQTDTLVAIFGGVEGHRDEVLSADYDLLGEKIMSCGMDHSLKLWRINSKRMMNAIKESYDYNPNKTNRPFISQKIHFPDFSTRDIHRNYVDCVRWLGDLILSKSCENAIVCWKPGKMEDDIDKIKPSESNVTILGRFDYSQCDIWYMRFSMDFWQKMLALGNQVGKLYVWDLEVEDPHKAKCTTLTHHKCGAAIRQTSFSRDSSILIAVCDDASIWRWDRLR
wild-type EZH2 (PRC2 enzyme), sequence (Q15022 whole entry partner): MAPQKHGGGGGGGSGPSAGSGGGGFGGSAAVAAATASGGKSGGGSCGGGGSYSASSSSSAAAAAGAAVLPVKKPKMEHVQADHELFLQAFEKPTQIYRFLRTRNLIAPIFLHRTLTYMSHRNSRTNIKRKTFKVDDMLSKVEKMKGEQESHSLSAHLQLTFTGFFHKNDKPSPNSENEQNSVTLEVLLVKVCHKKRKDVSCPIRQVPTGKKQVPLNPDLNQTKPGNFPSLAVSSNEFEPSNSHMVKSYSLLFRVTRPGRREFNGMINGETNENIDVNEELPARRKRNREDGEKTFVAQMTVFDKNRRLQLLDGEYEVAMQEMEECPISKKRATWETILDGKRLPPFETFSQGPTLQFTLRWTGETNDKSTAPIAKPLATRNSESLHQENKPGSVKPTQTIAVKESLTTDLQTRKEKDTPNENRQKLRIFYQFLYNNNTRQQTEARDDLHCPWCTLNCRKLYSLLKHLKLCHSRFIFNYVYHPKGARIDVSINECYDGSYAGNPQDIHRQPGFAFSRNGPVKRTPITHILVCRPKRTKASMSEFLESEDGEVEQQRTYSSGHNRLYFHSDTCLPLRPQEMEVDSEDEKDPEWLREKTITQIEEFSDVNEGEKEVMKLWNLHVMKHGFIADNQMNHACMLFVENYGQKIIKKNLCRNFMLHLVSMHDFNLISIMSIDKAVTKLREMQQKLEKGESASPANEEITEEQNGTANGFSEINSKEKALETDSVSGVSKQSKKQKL
wild-type EZH2 (PRC2 enzyme), sequence (Q09028 whole entry partner): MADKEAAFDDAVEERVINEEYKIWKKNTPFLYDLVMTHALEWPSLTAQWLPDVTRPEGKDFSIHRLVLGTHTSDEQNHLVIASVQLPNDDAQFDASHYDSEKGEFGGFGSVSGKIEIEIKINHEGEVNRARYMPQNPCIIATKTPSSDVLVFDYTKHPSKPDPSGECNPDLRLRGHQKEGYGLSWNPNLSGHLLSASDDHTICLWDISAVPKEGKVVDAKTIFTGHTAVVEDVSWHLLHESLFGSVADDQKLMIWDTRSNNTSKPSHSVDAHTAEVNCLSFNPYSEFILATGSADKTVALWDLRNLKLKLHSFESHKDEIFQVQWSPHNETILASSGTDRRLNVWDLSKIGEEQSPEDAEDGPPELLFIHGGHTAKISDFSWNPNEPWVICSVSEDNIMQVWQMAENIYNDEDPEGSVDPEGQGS

| IC50 [1] [µM] | SMILES | IC50 [2] [µM] |
| --- | --- | --- |
| 6.6 | Cc1cc(=O)c(CNC(=O)c2cc(C3=CC(C)(C)NC(C)(C)C3)nc3c2cnn3C(C)C)c(C)[nH]1 [Compound 1, N-((2,6-dimethyl-4-oxo-1,4-dihydropyridin-3-yl)methyl)-1-isopropyl-6-(2,2,6,6-tetramethyl-1,2,3,6-tetrahydropyridin-4-yl)-1H-pyrazolo[3,4-b]pyridine-4-carboxamide] | – |
| 7.1 | Cc1cc(=O)c(CNC(=O)c2cc(C3CC(C)(C)NC(C)(C)C3)nc3c2cnn3C(C)C)c(C)[nH]1 [Compound 2, N-((2,6-dimethyl-4-oxo-1,4-dihydropyridin-3-yl)methyl)-1-isopropyl-6-(2,2,6,6-tetramethylpiperidin-4-yl)-1H-pyrazolo [3,4-b]pyridine-4-carboxamide] | – |
| 0.028 | CCC(C)n1cc(C)c2c(C(=O)NCc3c(C)[nH]c(C)cc3=O)cc(-c3ccc(N4CCNCC4)nc3)cc21 (stereo not shown) [Compound 4, 1-(sec-butyl)-N-((2,6-dimethyl-4-oxo-1,4-dihydropyridin-3-yl)methyl)-3-methyl-6-(6-(piperazin-1-yl)pyridin-3-yl)-1H-indole-4-carboxamide] | 11.9 |

Reference: patent US10150759B2, “1,4-pyridone bicycic heteroaryl compounds” (Epizyme, Inc., priority 2012, dated 2018)
